The test system of series [1] is rat. Conditions: Prenatal developmental toxicity study, other, Oral, Gavage/Intubation, dose end: 15 GD.
Series [2] has as its system rat. Conditions: Subchronic oral toxicity in rodents, Fischer, Feed, dose end: 13 week, group: systemic, systemic / clinical chemistry / thyroxine (t4) / thyroxine (t4), total + systemic / clinical chemistry / triiodothyronine (t3) / ….
The test system of series [3] is dog. The following applies: Chronic toxicity, beagle, Oral, Feed, dose end: 104 week, group: systemic.
Series [4] relates to mouse. Conditions: Carcinogenicity, cd1, Oral, Feed, dose end: 104 week, group: systemic.
In series [5] the test system is rat. The following applies: Multigenerational reproductive toxicity study, sprague dawley, Oral, Feed, dose end: 2 generation.
Series [6] relates to rabbit. The following applies: Prenatal developmental toxicity study, new zealand white, Oral, Gavage/Intubation, dose end: 28 GD.
Series [7] relates to dog. Conditions: Subchronic oral toxicity in nonrodent, beagle, Feed, dose end: 90 day, group: systemic.
Series [8] deals with rat. Conditions: Developmental neurotoxicity study; long evans; Injection; Subcutaneous; dose end: 132 PND; group: cannot be grouped; systemic / pathology gross / brain / reduced size + systemic / pathology microscopic / brain / depletion cellular.
In series [9] the test system is rabbit. The following applies: Prenatal developmental toxicity study, new zealand white, Oral, Gavage/Intubation, dose end: 19 GD.
The test system of series [10] is rat. Conditions: Subchronic oral toxicity in rodents, sprague dawley, Gavage/Intubation, dose end: 13 week, group: systemic, systemic / clinical chemistry / thyroxine (t4) / thyroxine (t4), total + systemic / organ weight / thyroid gland / absolute + systemic / ….
Series [11] has as its system rat. The following applies: Subchronic dermal toxicity, sprague dawley, Topical, dose end: 21 day, group: systemic.
Series [12] has as its system rat. The following applies: Combined chronic toxicity/carcinogenicity; Oral; Gavage/Intubation; dose end: 104 week; group: systemic; systemic / in life observation / body weight / body weight gain + systemic / in life observation / water consumption / water consumption + ….
Series [13] relates to dog. The following applies: Subchronic oral toxicity in nonrodent, beagle, Capsule, dose end: 13 week, group: systemic.
The subject of series [14] is rat. Conditions: Subchronic oral toxicity in rodents, sprague dawley, Gavage/Intubation, dose end: 13 week, group: systemic.
Series [15] concerns rat. Conditions: Prenatal developmental toxicity study, Charles River COBS CD rats, Oral, Gavage/Intubation, dose end: 20 GD.
Series [16] has as its system mouse. The following applies: Combined chronic toxicity/carcinogenicity, cd1, Oral, Gavage/Intubation, dose end: 24 month, group: systemic.
The subject of series [17] is dog. Conditions: Chronic toxicity; beagle; Oral; Capsule; dose end: 52 week; group: systemic; systemic / in life observation / body weight / body weight gain + systemic / in life observation / clinical signs / salivation + systemic / ….
The test system of series [18] is rat. The following applies: Multigenerational reproductive toxicity study, other, Oral, Gavage/Intubation, dose end: 2 generation.
[19] abbreviates: group: developmental, developmental / developmental malformation / bone / incomplete ossification + developmental / developmental malformation / bone / wavy + ….
Where [20] appears, read: group: maternal, systemic / in life observation / body weight / body weight gain + systemic / in life observation / food consumption / food consumption.
[21] abbreviates: group: maternal, systemic / in life observation / body weight / body weight gain + systemic / in life observation / food consumption / food consumption + ….
The mark [22] stands for this setting: systemic / pathology microscopic / liver / [other] + systemic / clinical chemistry / alanine aminotransferase (alt/sgpt) / alanine ….
Setting [23] is: systemic / pathology microscopic / liver / [other] + systemic / in life observation / body weight / body weight gain + systemic / in life ….
Where [24] appears, read: systemic / pathology microscopic / liver / adenoma/carcinoma combined + systemic / pathology microscopic / liver / carcinoma + systemic / ….
[25] abbreviates: systemic / pathology microscopic / liver / carcinoma + systemic / pathology microscopic / liver / adenoma/carcinoma combined + systemic / ….
Where [26] appears, read: group: offspring, systemic / in life observation / body weight / offspring (pup) weight.
[27] abbreviates: group: parental, systemic / pathology microscopic / epididymis / hypospermia + systemic / pathology microscopic / testes / atrophy + systemic / pathology ….
The mark [28] stands for this setting: group: developmental, developmental / developmental malformation / kidney / small renal papilla.
Where [29] appears, read: group: maternal, systemic / in life observation / clinical signs / body surface staining + systemic / in life observation / food consumption / food ….
[30] abbreviates: systemic / clinical chemistry / cholesterol / cholesterol + systemic / clinical chemistry / albumin / albumin + systemic / in life ….
Setting [31] is: group: developmental, developmental / developmental malformation / brain / hydrocephaly + developmental / developmental malformation / mouth / jaw / cleft palate….
Setting [32] is: systemic / clinical chemistry / triiodothyronine (t3) / triiodothyronine (t3), total.
Where [33] appears, read: systemic / in life observation / clinical signs / watery stools.
The mark [34] stands for this setting: systemic / organ weight / liver / absolute + systemic / in life observation / body weight / body weight gain + systemic / in life ….
Setting [35] is: group: developmental, systemic / in life observation / body weight / offspring (pup) weight.
The mark [36] stands for this setting: group: maternal, systemic / in life observation / body weight / body weight gain + systemic / in life observation / clinical signs / salivation.
Where [37] appears, read: systemic / organ weight / ovary / absolute + systemic / organ weight / ovary / relative to body weight + systemic / organ weight / adrenal ….
The mark [38] stands for this setting: group: offspring, systemic / in life observation / clinical signs / reduced body size.
Where [39] appears, read: group: parental, systemic / in life observation / body weight / body weight gain.

Where only a bound is given, the exact number is not on record here.

Results on 5 molecules are retold here after EPA's ToxRefDB 2.

`CNC.O=C(O)COc1ccc(Cl)cc1Cl` [2,4-D, Dimethylamine salt]: the LOAEL (commonly the lowest dose or exposure tested at which an adverse effect was seen) in the series on rat [1] (setting [19]) came to 100 mg/kg/day; with rat [1] (setting [20]) it was 50 mg/kg/day; in the series on rat [2], 120 mg/kg/day. Moreover, the values for the NEL with rat [1] (setting [19]), with rat [1] (setting [21]) and in the series on rat [2] were 12.5 mg/kg/day, 12.5 mg/kg/day and 18.1 mg/kg/day, respectively. The NOAEL (commonly the highest tested level that showed no adverse finding) in the series on rat [1] (setting [19]) was 50 mg/kg/day; in the series with rat [1] (setting [21]), 12.5 mg/kg/day; in the series on rat [2], 18.1 mg/kg/day. The LEL in the series on rat [1] (group: developmental, developmental / developmental malformation / general / [other]) is 50 mg/kg/day; in the series on rat [1] (setting [20]), 50 mg/kg/day; in the series with rat [2], 120 mg/kg/day.

`CCCCNC(=O)n1c(NC(=O)OC)nc2ccccc21` [Benomyl]: the LEL in the series with dog [3] (setting [22]) stood at 62.5 mg/kg/day; in the series on mouse [4] (setting [25]) it was 75 mg/kg/day; in the series on rat [5] (setting [26]), 234 mg/kg/day; in the series with rat [5] (setting [27]), 168 mg/kg/day; with rabbit [6] (setting [28]), 180 mg/kg/day; with rabbit [6] (setting [29]) it was 180 mg/kg/day. The molecule further displayed an LEL in the series on dog [7] (systemic / clinical chemistry / cholesterol / cholesterol) of 12.5 mg/kg/day. Also, the LOAEL with dog [3] (setting [22]) is 62.5 mg/kg/day; with mouse [4] (setting [24]) it was over 750 mg/kg/day; with rat [5] (setting [26]) it was 234 mg/kg/day; in the series with rat [5] (group: parental, systemic / pathology microscopic / epididymis / hypospermia), 234 mg/kg/day; with rabbit [6] (setting [28]), 180 mg/kg/day; in the series with rabbit [6] (setting [29]), 180 mg/kg/day. Further, the lowest-observed-adverse-effect level (LOAEL) in the series with dog [7] (systemic / clinical chemistry / cholesterol / cholesterol + systemic / clinical chemistry / alanine aminotransferase (alt/sgpt) / alanine …) was found to be 37.5 mg/kg/day. Further, the NEL is 12.5 mg/kg/day in the series with dog [3] (setting [23]); under 75 mg/kg/day with mouse [4] (setting [25]); 38 mg/kg/day with rat [5] (group: offspring, systemic / in life observation / body weight / offspring (pup) weight + systemic / in life observation / clinical signs / reduced body size); 28 mg/kg/day with rat [5] (setting [27]); 90 mg/kg/day in the series with rabbit [6] (setting [28]); 90 mg/kg/day in the series on rabbit [6] (setting [29]). For the same molecule, the NEL in the series with dog [7] (setting [30]) was found to be 2.5 mg/kg/day. The NOAEL is 12.5 mg/kg/day in the series with dog [3] (setting [23]); at least 750 mg/kg/day in the series on mouse [4] (setting [24]); 38 mg/kg/day in the series with rat [5] (setting [26]); 38 mg/kg/day in the series on rat [5] (group: parental, systemic / pathology microscopic / epididymis / hypospermia + systemic / in life observation / body weight / body weight + systemic / in …); 90 mg/kg/day in the series with rabbit [6] (setting [28]); 90 mg/kg/day in the series on rabbit [6] (setting [29]). Besides, the no observed adverse effect level (NOAEL) with dog [7] (setting [30]) worked out at 12.5 mg/kg/day.

As for `COc1cc2c(c(OC)c1OC)-c1ccc(OC)c(=O)cc1[C@@H](NC(C)=O)CC2` [Colchicine], in the series with rat [8], the LEL turned out to be 0.4 mg/kg/day, the LOAEL is over 0.4 mg/kg/day, the NEL was under 0.4 mg/kg/day and the NOAEL is at least 0.4 mg/kg/day.

Turning to `S=C([S-])NCCNC(=S)[S-].[Na+].[Na+]` [Nabam-sodium], the LEL with rabbit [9] (setting [31]) worked out at 2.62 mg/kg/day; in the series on rabbit [9] (setting [21]), 32.8 mg/kg/day; in the series with rat [10], 80 mg/kg/day; in the series with rat [11] (setting [32]), 15 mg/kg/day. Besides, the lowest-observed-adverse-effect level (LOAEL) in the series on rabbit [9] (setting [31]) came to 2.62 mg/kg/day; in the series with rabbit [9] (setting [21]) it was 32.8 mg/kg/day; with rat [10], 80 mg/kg/day; in the series on rat [11] (systemic / in life observation / clinical signs / erythema), 150 mg/kg/day. In addition, the NEL in the series with rabbit [9] (setting [31]) was 0.328 mg/kg/day; in the series with rabbit [9] (setting [21]), 2.62 mg/kg/day; in the series with rat [10] it was 0.8 mg/kg/day; in the series on rat [11] (setting [32]) it was under 15 mg/kg/day. In addition, the NOAEL in the series with rabbit [9] (setting [31]) amounted to 0.328 mg/kg/day; with rabbit [9] (setting [21]), 2.62 mg/kg/day; in the series with rat [10], 0.8 mg/kg/day; in the series with rat [11] (systemic / clinical chemistry / triiodothyronine (t3) / triiodothyronine (t3), total + systemic / in life observation / clinical signs / …), 15 mg/kg/day.

As to `CC1(C)[C@H](C(=O)O[C@H](C#N)c2cccc(Oc3ccccc3)c2)[C@@H]1C(Br)C(Br)(Br)Br` (stereo partly specified) [Tralomethrin], the LEL worked out at 3 mg/kg/day in the series with rat [12]; 0.1 mg/kg/day with dog [13] (setting [33]); 6 mg/kg/day in the series on rat [14] (systemic / organ weight / liver / absolute + systemic / in life observation / body weight / body weight gain); 12 mg/kg/day in the series with rat [15] (setting [35]); 12 mg/kg/day in the series on rat [15] (group: maternal, systemic / in life observation / body weight / body weight gain + reproductive / offspring survival early / birth index / live birth index…); 0.75 mg/kg/day in the series with mouse [16] (setting [37]). Also, the LEL is 3 mg/kg/day in the series on dog [17], 0.75 mg/kg/day in the series on rat [18] (setting [38]) and 3 mg/kg/day with rat [18] (setting [39]). The LOAEL in the series on rat [12] was 3 mg/kg/day; with dog [13] (systemic / hematology / erythrocyte (rbc) count differential / erythrocyte (rbc) + systemic / hematology / hemoglobin (hgb) / hemoglobin (…), 10 mg/kg/day; in the series with rat [14] (systemic / organ weight / liver / absolute) it was 6 mg/kg/day; with rat [15] (setting [35]), over 12 mg/kg/day; in the series on rat [15] (group: maternal, systemic / in life observation / body weight / body weight gain + reproductive / offspring survival early / birth index / live birth index), 12 mg/kg/day; in the series with mouse [16] (systemic / pathology gross / skin / lesion(s) (nos)), 3 mg/kg/day. Besides, the results for the LOAEL in the series on dog [17], with rat [18] (setting [38]) and with rat [18] (setting [39]) were 3 mg/kg/day, 0.75 mg/kg/day and 3 mg/kg/day, respectively. The NEL in the series with rat [12] was 0.75 mg/kg/day; in the series with dog [13] (setting [33]), under 0.1 mg/kg/day; with rat [14] (setting [34]), 1 mg/kg/day; in the series with rat [15] (setting [35]), 3 mg/kg/day; in the series with rat [15] (setting [36]), 3 mg/kg/day; in the series with mouse [16] (setting [37]), under 0.75 mg/kg/day. The NEL with dog [17] was 1 mg/kg/day; in the series with rat [18] (setting [38]), under 0.75 mg/kg/day; with rat [18] (setting [39]), 0.75 mg/kg/day. Also, the NOAEL in the series on rat [12] is 0.75 mg/kg/day; in the series on dog [13] (systemic / in life observation / clinical signs / watery stools + systemic / hematology / erythrocyte (rbc) count differential / erythrocyte…), 1 mg/kg/day; with rat [14] (setting [34]) it was 1 mg/kg/day; in the series with rat [15] (setting [35]), at least 12 mg/kg/day; with rat [15] (setting [36]), 3 mg/kg/day; with mouse [16] (systemic / pathology gross / skin / lesion(s) (nos) + systemic / in life observation / clinical signs / abnormal motor movement + systemic…), 0.75 mg/kg/day. For the same molecule, the NOAEL with dog [17] was 1 mg/kg/day; in the series on rat [18] (setting [38]), under 0.75 mg/kg/day; with rat [18] (setting [39]), 0.75 mg/kg/day.
